Patent US7345069B2, “Oxidative activation and episulfonium ion-mediated DNA alkylation-based anticancer” (Wisconsin Alumni Research Foundation, priority 2004, dated 2008)
Like-named read-outs stand apart in the source and are kept apart here.

Experiments:
LNCaP cells [1] = experiment: Growth inhibition by DNA assay, LNCaP cells in androgen-depleted medium, untreated or pretreated with R1881 (with or without vitamin E succinate); type: cell-based
Description: To test whether TG-25 was activated under oxidative stress, LNCaP cells were grown in androgen-depleted medium in the presence of 0.01 nM and 1 nM androgen analog R1881 for 96 h. […] This concentration was also close to the range of concentration of the active androgen dihydrotestosterone found in normal human male and patients treated with androgen ablation therapy. The growth inhibitory effect of LNM and TG-25 against LNCaP cells either untreated or pretreated with R1881 as shown in FIG. 9 and FIG. 10, respectively. Under these treatment conditions, 0.01 nM R1881 stimulated growth by about 30% and 1 nM R1881 inhibited cell growth to about 40% of the control untreated cells. The data shown in FIG. 9 and FIG. 10 are normalized for the growth stimulatory or inhibitory effects of R1881 alone.
The effect of LNM and TG-25 against LNCaP cells pretreated with both R1881 and α-tocopherol succinate are shown in FIG. 11 and FIG. 12, respectively. All data for pretreated cells were normalized for the growth inhibition induced by α-tocopherol succinate plus R1881.

LNCaP cells [2] = conditions: cited from earlier work; for cellular ROS level: 96 h
DU-145 cells = experiment: Growth inhibition by DNA fluorescence assay, cells grown in 5% FBS, 72 h after drug treatment; type: cell-based; conditions: DNA fluorescence 72 h after drug treatment
Description: The growth inhibitory effects of LNM against LNCaP and DU-145 cell lines grown in 5% FBS were determined by measuring DNA fluorescence 72 h after drug treatment. […] Growth inhibitory effects of LNM against LNCaP and DU-145 cells were expressed as percent of control untreated cells are shown in FIG. 7.

[3] = tested on: immortalized normal prostatic epithelial cells (E6); experiment: Growth inhibition by DNA assay, immortalized normal prostatic epithelial cells (E6); type: cell-based
[4] = In vitro oxidation of purified TG-25 on exposure to O2; type: physicochemical; conditions: aqueous or methanol solution
Source text: Three additional minor metabolites were also characterized from the ΔlnmE strain, and their structures were elucidated by the combination of MS, ^1H- and ^13C—NMR, and various 2D NMR spectroscopic methods as discussed above (compound 1, 2, 4, and 5 as shown in FIG. 6) Although these compounds were isolated in minor quantities and were apparently derived from TG-25 during the isolation, their structures were critical in helping to define the oxidative activation of TG-25 undergo rearrangement via an episulfornium ion intermediate (FIG. 6). It was clear by comparing the structure of TG-25 with those of 1 and 2 that an oxidation step was required for their conversion. Isolation of compound 4 shed light into how this oxidative rearrangement from TG-25 to 1 or 2 actually happens. Thus, as depicted in FIG. 6 TG-25 apparently was first oxidized by O2 to form the dimmer 4, activating the sulfhydryl group into a disulfide. Nucleophilic attack of the disulfide by the double bond could then be envisaged to form an episulfonium ion intermediate, in a mechanistic analogy to LNM, that subsequently could be trapped by H2O (leading the formation of 1) or methanol (leading to the formation of 2). This hypothesis was confirmed by re-producing the chemistry in vitro with purified TG-25.

Q: What does the source list for `C[C@]1(O)CC[C@H]2[C@@H]3CCC4=CC(=O)CCC4=C3C=C[C@@]21C` [Compound R1881]?
A: growth stimulation by R1881 alone (LNCaP cells [1]; 0.01 nM R1881, 96 h, androgen-depleted medium): about 30%; cell growth with R1881 alone (LNCaP cells [1]; 1 nM R1881, 96 h, androgen-depleted medium): about 40 % of the control untreated cells; cellular ROS level (LNCaP cells [2]; 0.01 nM R1881, LNCaP cells): reduces the cellular ROS; cellular ROS level (LNCaP cells [2]; 1 nM R1881, LNCaP cells): increases cellular ROS level

Q: For `C/C1=C\[C@@H](O)C(=O)/C=C/C=C\c2csc(n2)[C@@H](C)NC(=O)C[C@@]2(CC1)[S+]([O-])SC(=O)[C@]2(C)O` (stereo partly drawn) [LNM, leinamycin], which “growth inhibitory effect in androgen depleted medium compared with 5% FBS” value (LNCaP cells [1]; LNCaP cells) is on record?
A: The value was “more pronounced”.

Q: What about the “influence of R1881 pretreatment on growth inhibition” value (LNCaP cells [1]; LNCaP cells pretreated with 0.01 nM or 1 nM R1881) of the same compound?
A: The value was “not appreciably affected”.

Q: And the “influence of α-tocopherol succinate on growth inhibition” value (LNCaP cells [1]; LNM alone or in combination with R1881, LNCaP cells)?
A: The value was “no effect”.

Q: What about the “sensitivity of DU-145 cells compared with LNCaP cells” value (DU-145 cells) of the same compound?
A: Its value is “slightly more sensitive to LNM”.

Q: And the IC50 ([3]; Epithelial cell, read-out: IC50, growth inhibition)?
A: Its IC50 is < 0.0002 µM.

Q: What about the “growth inhibitory effect compared with the prostate cancer cell lines” value ([3]; immortalized normal prostatic epithelial cells vs LNCaP and DU-145) of the same compound?
A: The value was “stronger growth inhibitory effect”.

Q: Which results are given for `C/C1=C\CC(=O)/C=C/C=C\c2csc(n2)[C@@H](C)NC(=O)C[C@@](S)(C(C)C(=O)O)CC1` (stereo partly drawn) [TG-25]?
A: IC50 (LNCaP cells [1]; Homo sapiens, LNCaP cells pretreated with 1 nM androgen analog R1881, read-out: IC50, growth inhibition of LNCaP prostate cancer cells): 5 to 10 µM; growth inhibitory effect after co-pretreatment with R1881 and vitamin E (α-tocopherol succinate) (LNCaP cells [1]; LNCaP cells pretreated with 1 nM R1881 plus α-tocopherol succinate, normalized for pretreatment alone): completely reverses the growth inhibitory effect; growth inhibitory effect against cells pretreated with 0.01 nM R1881 (LNCaP cells [1]; LNCaP cells, 0.01 nM R1881 for 96 h): no effect; growth inhibitory effect against R1881 pretreated cells (LNCaP cells [1]; LNCaP cells, R1881 pretreated (high oxidative stress)): markedly inhibited the growth; growth inhibitory effect against control untreated cells (LNCaP cells [1]; LNCaP cells, androgen-depleted medium, no R1881): no effect; conversion upon exposure to O2 [4]: rapidly converted to 1 or 2; growth inhibitory effect ([3]; immortalized normal prostatic epithelial cells, up to μM concentration): little growth inhibitory effect even at μM concentration

Q: Which “effect on the increase in ROS level by 1 nM R1881 pretreatment” value (LNCaP cells [2]; co-treatment of LNCaP cells) does the source give for `Cc1c(C)c2c(c(C)c1OC(=O)CCC(=O)O)CCC(C)(CCCC(C)CCCC(C)CCCC(C)C)O2` (stereo not drawn) [α-tocopherol (vitamin E) succinate] here?
A: Its value is “can be inhibited”.
